Experimental data: patent US12497614B2, “Compositions and methods for editing beta-globin for treatment of hemaglobinopathies” (Vertex Pharmaceuticals Incorporated, priority 2020, dated 2025)
Strand notation (5' to 3'): a small letter for the sugar, then the base; units joined by * are phosphorothioate-linked, units joined directly phosphodiester-linked; [ ] holds rarer units or linkages, { } end groups; capitals alone tell only the bases. m = 2'-O-methyl; r = 2'-OH (RNA)

How the values were obtained:
[1] = system: HBB gene locus in CD34+ HSPCs; assay: HDR efficiency with DNA-PK inhibitors for editing the HBB gene in CD34+ HSPCs; NGS (Example 4); type: cell-based, human; conditions: for % HDR / % INDELs: 48 hours
Description: The cells were transduced with AAV donor template for 1 hour at 37° C. prior to electroporation. AAV-encoded homology donor template referred to as “AAV.310”, which is identified by sequence in Table 8. The AAV.310 donor template encodes a SCD mutation, specifically valine at the 6th codon downstream the HBB start codon (E6V). The cells were treated with AAV at a dose of 10,000 MOI.
Edited cells were evaluated for viability using trypan blue, and for incorporation of gene-edits at 2 days post-electroporation. The efficiency of HDR repair for introducing an E6V mutation in the HBB gene was quantified by NGS assay as described in Example 1, and the frequency of INDELs induced at the T107 cut site was also evaluated by NGS analysis.
The INDELs species identified in edited cells were further evaluated to determine frequency of repair by NHEJ or MMEJ repair pathways. An INDEL of ±1 nt was considered due to NHEJ repair; a deletion of −9 nt was considered due to MMEJ repair based on the microhomology present on either side of the T107 cut site. Based on percentage of total reads corresponding to these INDEL species, the ratio of gene edits due to NHEJ and MMEJ repair was evaluated. […] Thus, reduced frequency of INDELs with treatment of compound 296 or i53 is largely due to suppression of the NHEJ repair pathway.

[2] = system: CD34+ HSPCs; assay: Cell growth and viability (trypan blue) of edited CD34+ HSPCs during differentiation (Example 5); conditions: day 0 to day 18 post-editing; inhibitor 1 or 3 μM, i53 1 μg mRNA; data not shown
Description: Briefly, frozen CD34+ HSPCs isolated from Plerixafor mobilized peripheral blood, obtained from healthy human donors were thawed. The cells were seeded in CD34 cell media at a cell density of 2×10^5 cells/mL. Cells were cultured at 37° C. under normoxic conditions (i.e., oxygen 20%). Gene-editing was performed following two days of in vitro culture. For editing, 5×10^5 CD34+ HSPCs were electroporated with RNP containing 200 μg/ml Cas9 and 200 μg/ml T107 sgRNA. […] The cells were transduced with AAV.310, 1 hour prior to electroporation, at a dose of 10,000 MOI. The cells were plated in CD34 cell medium containing Compound 296 or Compound 984 immediately following the electroporation, at a concentration of 1 μM or 3 μM for 48 hours. […] Post electroporation cells were resuspended in CD34 cell medium at a density of 2-5×10^5 cells/ml and incubated at 37° C. for 48 hours.
Following editing, cells were differentiated to erythrocytes. Briefly, cells were plated in fresh CD34 media at a density of 2×10^5 cells/mL, and re-plated at similar density in fresh CD34 media on days 3 and 5 post-editing. On day 7 and 10 post-editing, the cells were incubated in Phase II media at a density of 2.5×10^5 and 1×10^6 cells/mL respectively. On day 12 post-editing, the cells were incubated in Phase III media at a density of 1×10^6 cells/mL. On day 14 cells were plated at a density of 2×10^6 cells/ml in Phase III media and maintained till day 18 at 37° C. Cell growth was measured at various time points between day 0 and day 18 post-editing, and the percentage of viable cells was measured by staining with tryphan blue.

[3] = system: HBB gene locus and mRNA transcribed from HBB in CD34+ HSPCs; assay: Editing efficiency in genomic DNA and in HBB mRNA (Example 5); type: cell-based, human; conditions: genomic DNA, 48 hours post electroporation; 1 μM or 3 μM
Description: At 48 hours post electroporation genomic DNA was isolated from the edited cells and HDR to introduce the sickle mutation and INDEL frequencies were evaluated using next gene sequencing and computational analysis. On day 10 of differentiation, incorporation of the SCD mutation and frequency of INDELs present in mRNA transcribed from the HBB gene locus of edited cells was determined using RNA amplicon sequencing.

[4] = system: CD34+ HSPCs; assay: Globin and hemoglobin analysis by HPLC on day 18 of differentiation (Example 5); type: cell-based, human; conditions: T107 RNP+AAV.310 alone or combined with the inhibitor
Description: (§1) Following editing, cells were differentiated to erythrocytes.
Additionally, on day 18 post-editing, expression of globin monomers was assessed in differentiated cells by HPLC as described in Example 3. […] Accordingly, the editing was sufficient to both introduce the SCD mutation in HBB and result in expression of sickle globin.
Furthermore, production of hemoglobin tetramers was also evaluated by HPLC. The analysis included quantification of HbS tetramer containing sickle-globin (α2β(E6V)2), HbF tetramer (α2γ2), HbA (α2β2), and HbA2 (α2δ2) produced by edited cells. […] Thus, the editing was also sufficient to alter hemoglobin output following in vitro differentiation.

[5] = system: CD34+ HSPCs; assay: Erythrocyte functionality: enucleation and cell-surface markers by flow cytometry (Example 5); type: cell-based, human; conditions: T107 RNP+AAV.310 alone or combined with the inhibitor
Description: as §1
The ability of edited cells to differentiate to functional erythrocytes was assessed by determining expression of erythrocyte-associated cell surface markers and enucleation using flow cytometry on day 12 and 18 post editing. Briefly, 4×10^5 cells were obtained, and half were stained for erythrocyte cell-surface markers and half were used for detection of enucleation. For staining cell-surface markers, the cells were incubated in PBS containing 1% human serum albumin (PBS-A) and an antibody cocktail of anti-CD233(BRIC6-Band3)-FITC, anti-CD71-PE, anti-CD235a(GlyA)-PE/Cy7, and anti-CD49d (α4)-VioBlue. For detection of enucleation, 2 drops of NucRed nuclear staining reagent was added to 1 mL PBS-A, and 100 μL was added to plated cells. Following incubation, both cell samples were labeled with Sytox Blue solution (1:1000 dilution in PBS-A) for live/dead analysis. Samples were then assessed by flow cytometry

[6] = system: HBB gene in CD34+ HSPCs; assay: Comparison of guides targeting intron 1 of HBB with AAV donor templates (Example 8); type: cell-based, human; conditions: with each of AAV.309, AAV.310, AAV.311; day 2 post-editing
Description: Healthy donor CD34+ HSPCs derived from plerixafor-mobilized peripheral blood were cultured as described in Example 1 for two days prior to editing. Editing was performed using 1×10^6 CD34+ HSPCs per treatment group. The cells were electroporated with RNP containing the following 20 μg SpCas9 and 20 μg T107 sgRNA, 20 μg T223 sgRNA, or 20 μg R02 sgRNA. […] The cells were transduced with AAV6 donor templates encoding a SCD mutation (AAV.309; AAV.310; AAV.311) by incubating the cells with AAV at a dose of 10,000 MOI for one hour prior to electroporation. Control cells were transduced with AAV only and electroporated in the absence of RNP.
On day 2 post-editing, the efficiency of HDR repair for inducing a SCD mutation in the HBB gene was quantified by NGS assay as described in Example 1.

[7] = system: genomic sites undergoing off-target cleavage; assay: GUIDE-Seq screen of candidate off-target sites; type: cell-based, human
Excerpt: The second approach was to screen candidate off-target sites using GUIDE-Seq (see, e.g., Tsai et al (2015) NAT. BIOTECHNOL. 33:187). Based on this approach, the following number of genomic sites were identified as undergoing off-target cleavage per each gRNA: • (i) 36 GUIDE-Seq off-target sites for R02 gRNA; • (ii) 12 GUIDE-Seq off-target sites for […]; and • (iii) 43 GUIDE-Seq off-target sites for T223 gRNA.

[8] = T107 RNP + AAV.310 + 0.012 μM compound
[9] = T107 RNP + AAV.310 + 0.037 μM compound
[10] = T107 RNP + AAV.310 + 0.04 μM compound
[11] = T107 RNP + AAV.310 + 3.3 μM compound
[12] = T107 RNP + AAV.310 + 10 μM compound

With `CNC(=O)c1ccnc2c([C@H](C)CNc3cc(-c4cnc(C)nc4)ncn3)cccc12` [Compound 296] as the molecule, how does the “% HDR” value [1, 8] read?
Its value is 40%.

What about the “% INDELs” value [1, 8] of the same molecule?
Its value is 45%.

And the “% HDR” value [1, 9]?
Its value is 39%.

What about the “% INDELs” value [1, 9] of the same molecule?
The value was 46%.

What about the “% HDR” value [1, 10] of the same molecule?
Its value is 40%.

What about the “% INDELs” value [1, 10] of the same molecule?
The value was 42%.

What about the “% HDR” value [1, 11] of the same molecule?
Its value is 55%.

And the “% INDELs” value [1, 11]?
The value was 27%.

What about the “% HDR” value [1, 12] of the same molecule?
The value was 57%.

What about the “% INDELs” value [1, 12] of the same molecule?
Its value is 25%.

What about the “reduction of the frequency of INDELs at the T107 cut site compared to control cells” value ([1]; T107 RNP+AAV.310 with DNA-PK inhibitor) of the same molecule?
Its value is “approximately 1.6 fold”.

And the “INDEL species due to MMEJ repair (deletion of −9 nt)” value ([1]; T107 RNP+AAV.310, Compound 296 at 10 μM, i53 at 1 μg mRNA)?
The value was “no substantial reduction”.

And the “decrease in INDELs due to NHEJ repair (INDEL of ±1 nt)” value ([1]; T107 RNP+AAV.310, Compound 296 at 10 μM, i53 at 1 μg mRNA, vs DMSO)?
Its value is at most 3 fold.

And the “cell growth over time or percent viability vs T107 RNP+AAV.310 edited cells” value [2]?
The value was “No difference”.

What about the “frequency of INDELs at the T107 cut site compared to cells edited with T107 RNP+AAV.310 only” value [3] of the same molecule?
Its value is “decreased”.

And the “level of HDR repair compared to cells edited with T107 RNP+AAV.310 only” value [3]?
Its value is “increased”.

And the “HbA production compared to control cells” value [4]?
Its value is “decreased”.

What about the “HbS production compared to control cells” value [4] of the same molecule?
Its value is “increased”.

What about the “expression of sickle-globin compared to control cells” value [4] of the same molecule?
The value was “increased”.

And the “levels of enucleation vs control cells” value [5]?
Its value is “comparable”.

B1: T107 gRNA: intron-targeting gRNA, spacer SEQ ID NO: 3, sgRNA SEQ ID NO: 4 (nucleic acid)
guide: mU*mC*mC*rArCrArUrGrCrCrCrArGrUrUrUrCrUrArUrGrUrUrUrUrArGrArGrCrUrArGrArArArUrArGrCrArArGrUrUrArArArArUrArArGrGrCrUrArGrUrCrCrGrUrUrArUrCrArArCrUrUrGrArArArArArGrUrGrGrCrArCrCrGrArGrUrCrGrGrUrGrCmU*mU*mU*rU
How did the “levels of HDR for introducing the SCD mutation” value [6] turn out when B1 was run?
Its value is “similar”.

And the “GUIDE-Seq off-target sites (number)” value [7]?
The value was 12.

B2: T223 gRNA: intron-targeting gRNA, spacer SEQ ID NO: 51, sgRNA SEQ ID NO: 52 (nucleic acid)
guide: mU*mA*mA*rGrGrArGrArCrCrArArUrArGrArArArCrUrGrUrUrUrUrArGrArGrCrUrArGrArArArUrArGrCrArArGrUrUrArArArArUrArArGrGrCrUrArGrUrCrCrGrUrUrArUrCrArArCrUrUrGrArArArArArGrUrGrGrCrArCrCrGrArGrUrCrGrGrUrGrCmU*mU*mU*rU
What does the source list for B2?
levels of HDR for introducing the SCD mutation [6]: similar; GUIDE-Seq off-target sites (number) [7]: 43

B3: R02 gRNA: exon-targeting gRNA for exon 1 of HBB, spacer SEQ ID NO: 14, sgRNA SEQ ID NO: 15 (nucleic acid)
guide: mC*mU*mU*rGrCrCrCrCrArCrArGrGrGrCrArGrUrArArGrUrUrUrUrArGrArGrCrUrArGrArArArUrArGrCrArArGrUrUrArArArArUrArArGrGrCrUrArGrUrCrCrGrUrUrArUrCrArArCrUrUrGrArArArArArGrUrGrGrCrArCrCrGrArGrUrCrGrGrUrGrCmU*mU*mU*rU
Which “GUIDE-Seq off-target sites (number)” value [7] does the source give for B3 here?
The value was 36.
